By Cmax is commonly meant the maximum level reached in the sampled fluid or tissue. A word on the Tmax: it is the time from dosing to the highest level. The AUC is the area under the concentration-time curve, a measure of exposure. A low value points to less exposure.

This note sets out measurements from patent publication US20230263786A1, “MODULATION OF DRUG-DRUG INTERACTIONS OF VADADUSTAT” (Akebia Therapeutics, Inc., priority 2020, published 2023).

Data set [1] can be described thus: Phase I ferrous sulfate tablet interaction study.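 On all read-outs here: crossover in fasted human subjects with four-day washout between periods, plasma glucuronide metabolite pharmacokinetics, ratios computed as metabolite over parent for AUC and Cmax.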 Conditions: for Metabolite Ratio AUC(0-t) / Metabolite Ratio Cmax: Metabolite/Parent; for AUC(0-t) / Cmax / Tmax: metabolite in plasma; for AUC(0-t) / Cmax: mean; for Tmax: median.
Experimental: Pharmacokinetics. […] The ratio of metabolite to parent was calculated for each glucuronide metabolite for AUC(0-t); and AUC(0-inf) and Cmax.
Comparative Bioavailability. […] Factors incorporated in the model included: Sequence, Subject (Sequence), Period, and Treatment.
Treatment of Subjects. […] All subjects are dosed on the same day for Day 1 of Confinement Period 1, and are crossed over to the alternate treatment and are dosed on the same day for Day 1 of Confinement Period 2. Both treatments are administered in a fasted state, and a four-day Washout Period separates each Confinement Period.
Data set [2] in a line: Phase I interaction study Part 2 Arm 1: sulfasalazine. The data set is classed as in vivo, human. Conditions: for AUC(0-inf) / Cmax / AUC(0-t): both sexes, 500 mg. As for the experimental part:
The study included 3 periods as follow: • Screening: performed within 28 days prior to dosing on Day 1. • Treatment period: […] In Part 2 (Arm 1): For each dose of sulfasalazine administered, blood samples for PK analysis were collected at the following timepoints: pre-dose, 0.5, 1, 2, 3, 4, 5, 6, 8, 12, 18, 24, 36, 48, 60, 72 and 96 hours postdose. […] Arm 1 (sulfasalazine): 26 subjects were treated with the study drug. On the morning of Day 1, subjects received a single oral dose of sulfasalazine 500 mg after at least a 10-hour overnight fast. Subjects would remain fasted for approximately 4 hours after dosing. Following a 5-day washout period (Days 1-5) subjects received vadadustat 600 mg once daily beginning on Day 6 for 7 days (Days 6-12). […] On Day 9, subjects received their morning dose of vadadustat 600 mg along with a single oral dose of sulfasalazine 500 mg after at least a 10-hour overnight fast. Subjects would remain fasted for at least 4 hours after dosing. Subjects were discharged from the clinical research unit on the morning of Day 13.

A short description of data set [3]: Phase I interaction study Part 2 Arm 2: pravastatin. In kind it is in vivo, human. Conditions: for Cmax / AUC(0-inf) / AUC(0-t): both sexes, human, plasma, oral; for AUC(0-inf): read-out: AUC0-inf, Geometric LSM; for AUC(0-t): read-out: AUC0-last, Geometric LSM. Here is the method:
The pharmacokinetic (pK) parameters and safety of said drugs administered alone and in combination with Compound 1 were characterized.
Arm 2 (pravastatin): 26 subjects were treated with the study drug. On the morning of Day 1, subjects received a single oral dose pravastatin 40 mg after at least a 10-hour overnight fast. Subjects would remain fasted for approximately 4 hours after dosing. Following a 2-day washout period (Days 1-2) subjects received vadadustat 600 mg once daily beginning on Day 3 for 4 days (Days 3-6). When administered alone, vadadustat would be administered in the morning at least 30 minutes prior to breakfast. On Day 6, subjects received their morning dose of vadadustat 600 mg along with a single oral dose of pravastatin 40 mg after at least a 10-hour overnight fast. Subjects would remain fasted for at least 4 hours after dosing. Subjects were discharged from the clinical research unit on the morning of Day 7.

Data set [4] in a line: Phase I interaction study Part 1: rosuvastatin. Conditions: for AUC(0-inf) / AUC(0-t) / Cmax: both sexes, human, plasma, oral; for AUC(0-inf): read-out: AUC0-inf, Geometric LSM; for AUC(0-t): read-out: AUC0-last, Geometric LSM; for Cmax: read-out: Cmax, Geometric LSM. In kind it is in vivo, human. As for the experimental part:
In Part 1, 34 subjects were treated with the study drug. On the morning of Day 1, subjects received a single oral dose of rosuvastatin 20 mg after at least a 10-hour overnight fast. Subjects would remain fasted for at least 4 hours after dosing. […] When administered alone, vadadustat would be administered in the morning at least 30 minutes prior to breakfast. On Day 10, subjects received their morning dose of vadadustat 600 mg along with a single oral dose of rosuvastatin 20 mg after at least a 10-hour overnight fast. Subjects would remain fasted for at least 4 hours after dosing. Subjects were discharged from the clinical research unit (CRU) on the morning of Day 15.

Data set [5] can be described thus: Phase I interaction study Part 3 Arm 2: simvastatin. In kind it is in vivo, human. As for the experimental part: Subjects would remain fasted for approximately 4 hours after dosing. […] Subjects would remain fasted for at least 4 hours after dosing. Subjects were discharged from the clinical research unit on the morning of Day 6.
Data set [6] in a line: Phase I interaction study Part 3 Arm 1: atorvastatin. The data set is classed as in vivo, human. Conditions: for AUC0-∞, Ratio of geometric mean value Combined/alone / Cmax, Ratio of geometric mean value Combined/alone: Atorvastatin 40 mg, Compound 1 600 mg; for AUCtau, Geometric LSM Ratio (A + V/A) / Cmax, Geometric LSM Ratio (A + V/A): atorvastatin 40 mg QD, vadadustat 600 mg QD; for AUC / Cmax: both sexes, human, plasma, oral, 40 mg; for AUC: heading: AUCtau, Geometric LSM; for Cmax: read-out: Cmax, Geometric LSM. The text has this:
Subjects were discharged from the clinical research unit on the morning of Day 9.

The mark [7] stands for this setting: treatment Compound 1 450 mg alone.
The mark [8] stands for this setting: administered with Compound 1 compared to alone.
Setting [9] is: Treatment P + V: pravastatin 40 mg + vadadustat 600 mg QD.
[10] abbreviates: Treatment P: pravastatin 40 mg alone.
[11] abbreviates: pravastatin 40 mg, vadadustat 600 mg QD.
The mark [12] stands for this setting: Rosuvastatin 20 mg, Compound 1 600 mg.
[13] abbreviates: Treatment R + V: rosuvastatin 20 mg + vadadustat 600 mg QD.
The mark [14] stands for this setting: Treatment R: rosuvastatin 20 mg alone.
The mark [15] stands for this setting: rosuvastatin 20 mg, vadadustat 600 mg QD.
Where [16] appears, read: both sexes, human, in vivo, 40 mg.

For `O=C(CNC(=O)c1ncc(-c2cccc(Cl)c2)cc1O)O[C@@H]1O[C@H](C(=O)O)[C@@H](O)[C@H](O)[C@H]1O` [Compound 1-acyl-glucuronide], in data set [1] (treatment Compound 1 + Iron), the “Metabolite Ratio AUC(0-t)” value was 0.000458, the “Metabolite Ratio Cmax” value stood at 0.000909, the “AUC(0-t)” value amounted to 86.4 ng·h/mL and the Cmax was 32.2 ng/mL. The Tmax in data set [1] (treatment Compound 1 + Iron) is 3.0 h. Also, in data set [1] (treatment Compound 1 alone), the “Metabolite Ratio AUC(0-t)” value worked out at 0.00543 and the “Metabolite Ratio Cmax” value came out at 0.00112. Further, in data set [1] (setting [7]), the “AUC(0-t)” value is 208 ng·h/mL, the Cmax came to 82.6 ng/mL and the Tmax was found to be 1.75 h.
As for `Nc1ccc(O)c(C(=O)O)c1` [Mesalamine, mesalamine], the “AUC0-last, Geometric LSM” value in data set [2] (Treatment S: sulfasalazine 500 mg alone) turned out to be 220 ng·h/mL. Also, in data set [2] (human, in vivo), the AUC(0-inf) is 247 ng·h/mL and the concentration peaked (Cmax) at 22 ng/mL.
As to `CC[C@H](C)C(=O)O[C@H]1C[C@H](O)C=C2C=C[C@H](C)[C@H](CC[C@@H](O)C[C@@H](O)CC(=O)O)[C@H]21` [Pravastatin, pravastatin], the “change of systemic exposure” value in data set [3] (setting [8]) was “unchanged”. For the same molecule, in data set [3] (setting [9]), the Cmax is 44 ng/mL, the AUC(0-inf) stood at 137000 ng·h/mL and the AUC(0-t) was 134000 ng·h/mL. In data set [3] (setting [10]), the Cmax is 53.2 ng/mL, the AUC(0-inf) turned out to be 134000 ng·h/mL and the AUC(0-t) is 130000 ng·h/mL. For the same molecule, in data set [3] (setting [11]), the “AUC0-inf, Geometric LSM Ratio (P + V/P)” value was 102.03%; the “AUC0-last, Geometric LSM Ratio (P + V/P)” value was determined as 102.98%; the “Cmax, Geometric LSM Ratio (P + V/P)” value came out at 82.74%.
For `CC(C)c1nc(N(C)S(C)(=O)=O)nc(-c2ccc(F)cc2)c1/C=C/[C@@H](O)C[C@@H](O)CC(=O)O` [Rosuvastatin, rosuvastatin], in data set [4] (setting [12]), the “AUC0-∞, Ratio of geometric mean value Combined/alone” value was 246.86% and the “Cmax, Ratio of geometric mean value Combined/alone” value is reported as 274.80%. Further, in data set [4] (setting [13]), the AUC(0-inf) came to 254 ng·h/mL, the AUC(0-t) is 249 ng·h/mL and the Cmax was found to be 27.9 ng/mL. Besides, in data set [4] (setting [14]), the AUC(0-inf) is 103 ng·h/mL, the AUC(0-t) stood at 98.4 ng·h/mL and the Cmax is 10.2 ng/mL. For the same molecule, in data set [4] (setting [15]), the “AUC0-inf, Geometric LSM Ratio (R + V/R)” value is 246.86%; the “AUC0-last, Geometric LSM Ratio (R + V/R)” value was 252.86%; the “Cmax, Geometric LSM Ratio (R + V/R)” value was 274.80%.
In the case of `CCC(C)(C)C(=O)O[C@H]1C[C@@H](C)C=C2C=C[C@H](C)[C@H](CC[C@@H]3C[C@@H](O)CC(=O)O3)[C@H]21` [Simvastatin, simvastatin, reference compound], the “increase of total exposure” value in data set [5] (setting [8]) is given as “about 2 fold”.
As to `Nc1ccc(S(=O)(=O)Nc2ccccn2)cc1` [Sulfapyridine, sulfapyridine], in data set [2] (human, in vivo), the AUC(0-inf) was determined as 42800 ng·h/mL, the AUC(0-t) worked out at 42400 ng·h/mL and the peak level (Cmax) was 2580 ng/mL.
In data set [2] (human, in vivo), `O=C(O)c1cc(/N=N/c2ccc(S(=O)(=O)Nc3ccccn3)cc2)ccc1O` [Sulfasalazine, sulfasalazine, reference compound] came in with an AUC(0-inf) of 82700 ng·h/mL, an AUC(0-t) of 82200 ng·h/mL and a Cmax of 9700 ng/mL. In addition, the “increase of systemic exposure” value in data set [2] (both, human, in vivo) was “up to 4.5 fold”.
Take `CC(C)c1c(C(=O)Nc2ccccc2O)c(-c2ccccc2)c(-c2ccc(F)cc2)n1CC[C@@H](O)C[C@@H](O)CC(=O)O` [o-hydroxy atorvastatin, (3R,5R)-7-[2-(4-fluorophenyl)-4-[(2-hydroxyphenyl)carbamoyl]-3-phenyl-5-propan-2-ylpyrrol-1-yl]-3,5-dihydroxyheptanoic acid]: in data set [6], the “AUC0-∞, Ratio of geometric mean value Combined/alone” value amounted to 112.01%; the “Cmax, Ratio of geometric mean value Combined/alone” value worked out at 91.20%; the “AUCtau, Geometric LSM Ratio (A + V/A)” value is recorded as 111.34%; the “Cmax, Geometric LSM Ratio (A + V/A)” value turned out to be 91.20%. In data set [6], the AUC came to 96 ng·h/mL and the Cmax worked out at 15 ng/mL.
`CC(C)c1c(C(=O)Nc2ccc(O)cc2)c(-c2ccccc2)c(-c2ccc(F)cc2)n1CC[C@@H](O)C[C@@H](O)CC(=O)O` [p-hydroxy atorvastatin, (3R,5R)-7-[2-(4-fluorophenyl)-4-[(4-hydroxyphenyl)carbamoyl]-3-phenyl-5-propan-2-ylpyrrol-1-yl]-3,5-dihydroxyheptanoic acid]: in data set [6], the “AUC0-∞, Ratio of geometric mean value Combined/alone” value worked out at 167.57%; the “Cmax, Ratio of geometric mean value Combined/alone” value came out at 230.48%; the “AUCtau, Geometric LSM Ratio (A + V/A)” value is 175.60%; the “Cmax, Geometric LSM Ratio (A + V/A)” value was 230.48%. In addition, in data set [6], the AUC worked out at 8.92 ng·h/mL and the Cmax came out at 0.62 ng/mL.
In data set [5] (setting [16]), `CCC(C)(C)C(=O)O[C@H]1C[C@@H](C)C=C2C=C[C@H](C)[C@H](CC[C@@H](O)C[C@@H](O)CC(=O)O)[C@H]21` [β-hydroxysimvastatin acid, (3R,5R)-7-[(1S,2S,6R,8S,8aR)-8-(2,2-dimethylbutanoyloxy)-2,6-dimethyl-1,2,6,7,8,8a-hexahydronaphthalen-1-yl]-3,5-dihydroxyheptanoic acid] displayed an AUC(0-inf) of 20200 ng·h/mL, an AUC(0-t) of 17300 ng·h/mL and a Cmax of 1850 ng/mL.
